In patent US5998654A, “Retinoic acid receptor antagonist compounds and methods” (Ligand Pharmaceuticals Incorporated, priority 1997, dated 1999):

Tests used:
RARα = target: T1, RARα (Homo sapiens, UniProt P10276); experiment: RAR binding, RARα; details: Kd from IC50 by Cheng-Prussof equation
T1 sequence (P10276 1-462): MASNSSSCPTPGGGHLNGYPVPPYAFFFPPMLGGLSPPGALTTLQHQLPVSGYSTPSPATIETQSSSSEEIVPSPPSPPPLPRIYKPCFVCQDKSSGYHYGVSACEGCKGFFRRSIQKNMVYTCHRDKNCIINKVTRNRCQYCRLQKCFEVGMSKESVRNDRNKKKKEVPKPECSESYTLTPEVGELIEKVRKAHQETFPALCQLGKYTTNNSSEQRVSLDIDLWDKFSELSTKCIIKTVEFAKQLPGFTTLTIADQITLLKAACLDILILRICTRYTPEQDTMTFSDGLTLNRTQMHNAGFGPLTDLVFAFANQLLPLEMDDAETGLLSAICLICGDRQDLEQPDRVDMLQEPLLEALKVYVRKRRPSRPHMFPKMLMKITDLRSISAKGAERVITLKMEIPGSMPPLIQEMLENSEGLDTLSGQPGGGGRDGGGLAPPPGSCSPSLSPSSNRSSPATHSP
Description: Non-specific binding was defined as that binding remaining in the presence of 500 nM of the appropriate unlabelled compound. At the end of the incubation period, bound from free ligand were separated. The amount of bound tritiated retinoids was determined by liquid scintillation counting of an aliquot (700 μL) of the supernatant fluid or the hydroxylapatite pellet.
After correcting for non-specific binding, IC50 values were determined. […] The IC50 value was determined graphically from a log-logit plot of the data. The Kd values were determined by application of the Cheng-Prussof equation to the IC50 values, the labeled ligand concentration and the Kd of the labeled ligand.

RARβ = target: T2, RARβ (Homo sapiens, UniProt P10826); experiment: co-transfection assay, agonist activity on RARβ; format: cell-based; design: expressed in transfected cells; host or cells: CV-1 cells (African green monkey kidney); details: CV-1 cells; read-out: EC50 agonist potency, RARβ
T2 sequence (P10826 1-448 isoform P10826-2): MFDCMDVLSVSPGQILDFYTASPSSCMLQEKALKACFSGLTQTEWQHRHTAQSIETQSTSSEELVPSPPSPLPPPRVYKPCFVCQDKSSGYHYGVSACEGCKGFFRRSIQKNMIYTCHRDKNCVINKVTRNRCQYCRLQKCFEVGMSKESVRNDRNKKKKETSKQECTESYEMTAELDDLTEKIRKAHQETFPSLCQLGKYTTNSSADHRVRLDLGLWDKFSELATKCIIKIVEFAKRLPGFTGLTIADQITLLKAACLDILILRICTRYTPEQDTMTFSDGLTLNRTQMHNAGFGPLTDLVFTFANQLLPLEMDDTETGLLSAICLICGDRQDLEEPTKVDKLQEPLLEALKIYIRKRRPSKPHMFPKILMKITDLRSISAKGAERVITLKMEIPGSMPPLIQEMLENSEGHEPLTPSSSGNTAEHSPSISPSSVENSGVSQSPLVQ
From the text: This assay is described in further detail in U.S. Pat. Nos. 4,981,784 and 5,071,773, the disclosures of which are incorporated herein by reference.
In the co-transfection assay, a cloned cDNA for an IR (e.g., human RARα:, RARβ, RXRγ) under the control of a constitutive promoter (e.g., the SV 40 promoter) is introduced by transfection (a procedure to induce cells to take up foreign genes) into a background cell substantially devoid of endogenous IRs. This introduced gene directs the recipient cells to make the IR protein of interest. A second gene is also introduced (co-transfected) into the same cells in conjunction with the IR gene. This second gene, comprising the cDNA for a reporter protein, such as firefly luciferase (LUC), is controlled by an appropriate hormone responsive promoter containing a hormone response element (HRE). This reporter plasmid functions as a reporter for the transcription-modulating activity of the target IR. Thus, the reporter acts as a surrogate for the products (mRNA then protein) normally expressed by a gene under control of the target receptor and its native hormone.
The co-transfection assay can detect small molecule agonists or antagonists of target IRs. Exposing the transfected cells to an agonist ligand compound increases reporter activity in the transfected cells. This activity can be conveniently measured, e.g., by increasing luciferase production, which reflects compound-dependent, IR-mediated increases in reporter transcription. To detect antagonists, the co-transfection assay is carried out in the presence of a constant concentration of an agonist to the target IR (e.g., all-trans retinoic acid for RARα) known to induce a defined reporter signal. Increasing concentrations of a suspected antagonist will decrease the reporter signal (e.g., luciferase production). The co-transfection assay is therefore useful to detect both agonists and antagonists of specific IRs. Furthermore, it determines not only whether a compound interacts with a particular IR, but whether this interaction mimics (agonizes) or blocks (antagonizes) the effects of the native regulatory molecules on target gene expression, as well as the specificity and strength of this interaction.
CV-1 cells (African green monkey kidney fibroblasts) were cultured in the presence of Dulbecco's Modified Eagle Medium (DMEM) supplemented with 10% charcoal resin-stripped fetal bovine serum then transferred to 96-well microtiter plates one day prior to transfection. […]

## CCCOc1c(C(C)(C)C)cc(/C(C)=C/C=C/C(C)=C/C(=O)O)cc1C(C)(C)C [Compound 8, 2E, 4E, 6E-[7-(3,5-Di-t-butyl-4-n-propoxyphenyl)-3-methyl]-octa-2,4,6-trienoic acid]
RARα
  Kd: 2 nM
RARβ
  EC50: > 10000 nM

## CCCCCOc1c(C(C)(C)C)cc(/C(C)=C/C=C/C(C)=C/C(=O)O)cc1C(C)(C)C [Compound 9, 2E, 4E, 6E-[7-(3,5-Di-t-butyl-4-n-pentoxyphenyl)-3-methyl]-octa-2,4,6-trienoic acid]
RARα
  Kd: 9 nM
RARβ
  EC50: > 10000 nM

## CCCCOc1c(C(C)(C)C)cc(/C(C)=C/C=C/C(C)=C/C(=O)O)cc1C(C)(C)C [Compound 7, 2E, 4E, 6E-[7-(3,5-Di-t-butyl-4-n-butoxyphenyl)-3-methyl]-octa-2,4,6-trienoic acid]
RARα
  Kd: 3 nM
RARβ
  EC50: > 10000 nM

## C=C(c1ccccc1)c1cc(/C(C)=C/C=C/C(C)=C/C(=O)O)cc(C(C)(C)C)c1 [Compound 17, (2E,4E,6E)-7-[3-t-butyl-5-(1-phenyl-vinyl)-phenyl]-3-methyl-octa-2,4,6-trienoic acid]
RARα
  Kd: 2 nM
RARβ
  EC50: > 10000 nM
